Test results reported in ChEMBL document CHEMBL1201862, “PubChem BioAssay data set” (2004).
The source made the active and inactive calls.

How the values were obtained:
[1] = target: Cytochrome P450 2C9 (Homo sapiens, UniProt P11712)
[2] = target: T1, Cytochrome P450 3A4 (Homo sapiens, UniProt P08684);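 further: CYP3A4 tested as one member of a cytochrome P450 panel screen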
[3] = target: Cytochrome P450 2C19 (Homo sapiens, UniProt P33261); test: Cytochrome panel assay with activity outcomes. Panel member name: p450-cyp2c19 Compounds with AC50 equal or less than 10 uM are considered active; assay type: functional; conditions: read-out: AC50
[4] = cytotoxicity toward NIH3T3 fibroblasts, dose response, counter-screen, cell-based, ATP luminescence, mouse fibroblasts (AID 2010); assay type: functional; conditions: NIH3T3;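 further: cells exposed to compound for about 90 hours before reading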
[5] = target: Glucose-6-phosphate 1-dehydrogenase (Homo sapiens, UniProt P11413); test: human G6PD enzyme inhibitors, dose response, selectivity assay for P. falciparum G6PD inhibitor project, biochemical, fluorescence (AID 504792); assay type: functional
[6] = inhibitors of intracellular T. cruzi replication, confirmation, NIH3T3 host cells, beta-gal luminescence (AID 2044); assay type: functional, cell-based;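 further: intracellular parasites grown in NIH/3T3 mouse fibroblasts as host cells; luminescent beta-galactosidase reporter signal from transgenic T. cruzi replicating inside host cells; inhibitors lower the luminescence signal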
[7] = target: T1, Cytochrome P450 3A4; remark: listed apart in the source
[8] = target: Cytochrome P450 2D6 (Homo sapiens, UniProt P10635);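 further: CYP2D6 member of a cytochrome P450 panel assay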
[9] = target: T2, Polyadenylate-binding protein 1 (Homo sapiens, UniProt P11940); test: PABP1 MLLE–PAM2 interaction inhibitors, dose response, miRNA deadenylation inhibitor project, biochemical, fluorescence polarization, Cy5-PAM2 peptide, secondary (AID 602260); assay type: functional; conditions: read-out: IC50_Mean
[10] = target: Beta-galactosidase (Escherichia coli, UniProt Q8VNN2); test: beta-galactosidase enzyme inhibitors and activators, dose response, artefact control for CCR6 antagonist project, biochemical, E. coli enzyme, set 3 (AID 504712); assay type: functional
[11] = target: T2, Polyadenylate-binding protein 1; test: PABP1 MLLE–PAM2 binding inhibitor potency, dose response, biochemical, fluorescence polarization, FITC-PAM2 peptide (AID 602259); assay type: functional; conditions: read-out: IC50_Mean
[12] = target: Genome polyprotein (dengue virus type 2, UniProt P29990); test: Dengue-2 NS5 methyltransferase inhibitors, primary screen, biochemical, confirmation dose response (AID 588689); assay type: functional
[13] = target: Dual specificity protein phosphatase 6 (Rattus norvegicus, UniProt Q64346); assay type: functional;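 further: confirmatory in vitro dose-response testing of MKP-3 inhibition; recombinant His-tagged MKP-3 made in E. coli BL21 with OMFP substrate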
[14] = target: T3, Tyrosine-protein phosphatase non-receptor type 7 (Homo sapiens, UniProt P35236); test: redox-dependent HePTP inhibition, mechanism study, biochemical, fluorescence (AID 2068); assay type: functional
T3 sequence (P35236 whole entry): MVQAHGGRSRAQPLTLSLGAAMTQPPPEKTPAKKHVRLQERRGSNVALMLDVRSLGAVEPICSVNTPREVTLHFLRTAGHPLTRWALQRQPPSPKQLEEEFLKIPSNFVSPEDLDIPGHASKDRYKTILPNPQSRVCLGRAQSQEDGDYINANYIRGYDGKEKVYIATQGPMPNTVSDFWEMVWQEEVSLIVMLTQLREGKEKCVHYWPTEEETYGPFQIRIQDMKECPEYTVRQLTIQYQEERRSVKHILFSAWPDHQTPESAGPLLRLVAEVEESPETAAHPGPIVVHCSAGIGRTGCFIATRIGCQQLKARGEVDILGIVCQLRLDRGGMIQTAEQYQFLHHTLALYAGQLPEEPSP

[15] = target: T4, Dual specificity protein phosphatase 3 (Homo sapiens, UniProt P51452); test: SAR VHR1 Fluorescent Assay for In Vitro dose response studies. [Related pubchem assays (depositor defined):AID1654, AID1661, AID1878, AID1992, AID2004, AID2070, AID2085]; assay type: functional
[16] = target: T4, Dual specificity protein phosphatase 3; test: SAR VHR1 absorbance Assay for In Vitro dose response studies. [Related pubchem assays (depositor defined):AID1654, AID1661, AID1878, AID1992, AID2004]
[17] = target: Sphingosine 1-phosphate receptor 1 (Homo sapiens, UniProt P21453); test: Fluorescence-based counterscreen assay for S1P4 agonists: Cell-based dose response high throughput screening assay to identify agonists of the Sphingosine 1-Phosphate Receptor 1 (S1P1). [Related pubchem assays (depositor defined):AID1509, AID1523, AID1801, AID463107, AID463118, AID463119, AID463122, AID463123, AID463129, AID463225, AID504400, AID504460]; assay type: functional
[18] = target: Sphingosine 1-phosphate receptor 2 (Homo sapiens, UniProt O95136); test: Dose Response Cell Based Assay for Agonists of the S1P2 Receptor. [Related pubchem assays: 729, 736, 843 ]; assay type: functional
[19] = target: Sphingosine 1-phosphate receptor 4 (Homo sapiens, UniProt O95977); test: Fluorescence dose response cell-based high throughput screening assay for agonists of the Sphingosine 1-Phosphate Receptor 4 (S1P4). [Related pubchem assays: 1509 (Primary screen.), 1523 (Confirmation screen in triplicates.)]; assay type: functional
[20] = cytotoxicity in HEK-293T NF-kB-Luc cells, dose response, cytotoxicity control for B/T-cell NF-kB inhibitor project, cell-based, uHTS hits (AID 489019); assay type: functional;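 further: IC50 reflects cytotoxicity as loss of cell viability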
[21] = test system: Jurkat; test: antigen receptor-induced NF-kB inhibitors, dose response, Jurkat, luciferase reporter, luminescence, B- and T-cell (AID 489004); assay type: functional, cell-based; conditions: Homo sapiens;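 further: NF-kB luciferase reporter Jurkat cells stimulated with PMA plus ionomycin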
[22] = target: G-protein coupled receptor 55 (Homo sapiens, UniProt Q9Y2T6); test: GPR55 antagonists, SAR follow-up, counter-screen for GPR35 antagonist project, imaging, image-based (AID 2397); assay type: functional
[23] = target: Induced myeloid leukemia cell differentiation protein Mcl-1 (Homo sapiens, UniProt Q07820); assay type: functional
[24] = cytotoxicity in MIN6 insulinoma cells, dose response, cytotoxicity control, cell-based, mouse insulinoma (AID 2122); assay type: functional;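 further: confirmatory high-throughput counterscreen run to flag cytotoxic compounds; mouse MIN-6 beta cells carrying an insulin promoter eGFP reporter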
[25] = insulin promoter down-regulators in MIN6 cells, imaging, high-content screening, mouse beta cells (AID 1628); assay type: functional
[26] = target: T5, Intestinal-type alkaline phosphatase (Mus musculus, UniProt P24822); test: mouse intestinal alkaline phosphatase activators, dose response, biochemical, luminescence, uHTS hits (AID 488783); assay type: functional
[27] = target: T6, Endoribonuclease toxin MazF (Escherichia coli K-12, UniProt P0AE70); test: fluorescent RNA oligo signal without MazF, dose response, counter-screen for MazEF activator project, biochemical, fluorescence, single-stranded RNase substrate (AID 588502); assay type: functional
T6 sequence (P0AE70 whole entry): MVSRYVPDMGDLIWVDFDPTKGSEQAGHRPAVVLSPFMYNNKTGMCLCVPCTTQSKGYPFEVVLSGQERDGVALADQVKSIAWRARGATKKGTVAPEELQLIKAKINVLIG

[28] = cells
[29] = target: T7, Intestinal-type alkaline phosphatase (Homo sapiens, UniProt P09923); test: activation of human intestinal alkaline phosphatase – biochemical, dose response (AID 488873); assay type: functional
[30] = target: Cyclin-dependent kinase 5/CDK5 activator 1 (Homo sapiens, UniProt Q00535); test: CDK5/p35 kinase inhibitors, dose response, biochemical, cherry-picked samples, set 2 (AID 504545)
[31] = target: T8, Alkaline phosphatase, tissue-nonspecific isozyme (Homo sapiens, UniProt P05186); test: TNAP enzyme activators, dose response, selectivity assay for mouse IAP activator project, biochemical, TNAP isozyme, mouse IAP uHTS hits (AID 488880); assay type: functional
T8 sequence (P05186 whole entry): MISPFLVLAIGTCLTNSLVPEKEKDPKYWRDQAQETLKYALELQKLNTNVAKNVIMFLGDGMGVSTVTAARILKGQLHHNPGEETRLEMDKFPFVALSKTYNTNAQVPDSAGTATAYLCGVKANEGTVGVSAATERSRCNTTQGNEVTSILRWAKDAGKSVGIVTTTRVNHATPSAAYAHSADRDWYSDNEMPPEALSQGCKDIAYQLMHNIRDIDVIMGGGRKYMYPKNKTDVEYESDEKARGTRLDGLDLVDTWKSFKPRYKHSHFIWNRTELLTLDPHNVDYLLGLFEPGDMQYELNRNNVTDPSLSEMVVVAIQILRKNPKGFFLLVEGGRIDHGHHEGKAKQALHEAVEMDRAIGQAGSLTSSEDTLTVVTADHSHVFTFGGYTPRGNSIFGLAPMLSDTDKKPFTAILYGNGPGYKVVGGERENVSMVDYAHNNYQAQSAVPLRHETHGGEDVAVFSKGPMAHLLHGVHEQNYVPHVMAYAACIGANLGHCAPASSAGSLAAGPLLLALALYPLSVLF

[32] = target: T9, Fibrinogen beta chain (Homo sapiens, UniProt P02675); test: Fluorescence polarization-based biochemical high throughput dose response assay to identify inhibitors that disrupt the binding of a cyclic peptide (Tn6) to the fibrin proteolytic product D-Dimer and fragment E complex [DD(E )].
[33] = target: Major prion protein (Homo sapiens, UniProt P04156); assay type: functional, cell-based
[34] = target: T9, Fibrinogen beta chain; test: Fluorescence polarization-based biochemical high throughput dose response assay to identify inhibitors that disrupt the binding of a cyclic peptide (Tn7) to the fibrin proteolytic product D-Dimer and fragment E complex [DD(E )].
[35] = target: Large T antigen (Simian virus 40, UniProt P03070); assay type: functional, Betapolyomavirus macacae;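 further: Confirmatory-stage PubChem screen for compounds that inhibit SV40 T antigen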
[36] = target: T6, Endoribonuclease toxin MazF; test: MazF toxin RNase activators, dose response, biochemical, fluorescence, single-stranded RNA substrate, uHTS hits (AID 588481); assay type: functional
[37] = Counterscreen for AddAB inhibitors: absorbance-based bacterial cell-based high throughput dose response assay for inhibitors of bacterial viability. [Related pubchem assays (depositor defined):AID435030, AID449728, AID449731, AID488942, AID488955, AID488956]; assay type: functional
[38] = target: Paired box protein Pax-8 (Homo sapiens, UniProt Q06710); test: inhibitors of PAX8-driven TPO luciferase reporter, dose response, RMG-I cells, cherry-pick (AID 687027); assay type: functional, cell-based;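 further: luciferase reporter driven by Pax8 target thyroperoxidase promoter measured by SteadyGlo luminescence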
[39] = target: Exodeoxyribonuclease V (Escherichia coli (strain K12), UniProt P04993+P07648+P08394); test: E. coli RecBCD inhibitors, dose response, counter-screen for AddAB inhibitor project, absorbance, V66 E. coli, mutant T4 phage (AID 492957); assay type: functional, cell-based, Escherichia coli str. K-12 substr. MG1655
[40] = target: T5, Intestinal-type alkaline phosphatase; test: PubChem AID 488875; assay type: functional
[41] = target: T7, Intestinal-type alkaline phosphatase; test: human IAP activators, dose response, biochemical, luminescent, uHTS hits, set 2 (AID 488817); assay type: functional;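 further: potency of activators that raise enzyme activity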
[42] = target: T7, Intestinal-type alkaline phosphatase; test: human intestinal alkaline phosphatase activators, dose response, biochemical, luminescence, uHTS hits (AID 463120); assay type: functional
[43] = target: T8, Alkaline phosphatase, tissue-nonspecific isozyme; test: TNAP enzyme activators, dose response, selectivity assay for human IAP activator project, biochemical, TNAP isozyme, human IAP uHTS hits (AID 488886); assay type: functional;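 further: potency of compounds raising TNAP activity as a selectivity check on IAP activators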

CCOc1ccc(CSC(CC(=O)O)C(=O)O)cc1 (stereo unspecified)
inconclusive: AC50 [1] 15.8 µM | AC50 [2] | AC50 [3] 14.1 µM

Cc1cc(O)c(-c2cc(O)c(C)cc2O)cc1O
inconclusive: AC50 [7] 1.58 µM | AC50 [8]
active: EC50 [4] 4.13 µM | IC50 [5] 11.1 µM | EC50 [6] 2.37 µM | IC50 [12] 39.8 µM
inactive: IC50 [9] > 66 µM | IC50 [10] > 66.6 µM | IC50 [11] > 66 µM

CN(C)C(=O)c1cn(CCOc2ccccc2)c2ccccc12
inactive: IC50 [13] > 100 µM | IC50 [14] > 100 µM | IC50 [15] > 100 µM | IC50 [16] > 100 µM

Clc1ccc(N2N=C(c3cccs3)CC2c2ccco2)cc1 (stereo unspecified)
active: EC50 [17] 5.98 µM | EC50 [18] 2.71 µM | EC50 [19] 9.2 µM

Cc1cc(NNC(=O)Nc2cccc(Cl)c2)nc2c1c(C)nn2C
inactive: IC50 [20] > 80 µM | IC50 [21] 46.2 µM

COc1ccc(Cn2c(SCC(=O)Nc3ccc(C)c(C)c3)nc3ccsc3c2=O)cc1
inactive: IC50 [22] > 32 µM

O=C(Nc1ccc(N2CCOCC2)cc1)Nc1ccc2nc(-c3ccco3)c(-c3ccco3)nc2c1
active: IC50 [23] 0.894 µM | IC50 [24] 3.55 µM | IC50 [25] 1.91 µM

Oc1cc2c(cc1O)C1c3ccc(O)c(O)c3OCC1(O)C2 (stereo unspecified) [HAEMATOXYLIN]
active: IC50 [23] 3.44 µM | EC50 [26] 62.1 µM | EC50 [29] 50 µM | AC50 [30] 17.5 µM | EC50 [31] 85.7 µM | IC50 [32] 9.33 µM | IC50 [12] 17.4 µM | IC50 [35] 4.66 µM
inactive: IC50 [5] 66.5 µM | EC50 [27] 72.8 µM | IC50 [28] > 138 µM | IC50 [33] 14 µM | IC50 [34] > 83.3 µM | EC50 [36] 30.1 µM

COc1cc(NC(=O)c2ccc([N+](=O)[O-])o2)ccc1NC(=O)c1ccco1
active: AC50 [38] 3.75 µM
inactive: IC50 [37] > 119 µM | IC50 [39] > 119 µM

O=C(CCCCC(=O)NNC(=O)COc1ccccc1)NNC(=O)COc1ccccc1
inactive: EC50 [40] > 100 µM
active: EC50 [41] 9.87 µM | EC50 [42] 8.19 µM | EC50 [43] 10 µM
